Consider one compound from paper PMC9106008, “Design, Synthesis and Biological Evaluation of N-phenylindole Derivatives as Pks13 Inhibitors againstMycobacterium tuberculosis” (Molecules, 2022).

Data set [1] has as its system Mtb H37Rv strain. The data set is described as follows: microplate alamar blue assay (MABA), MIC. The settings on record: Mycobacterium tuberculosis, H37RV, lowest concentration leading to at least 90% inhibition of bacterial growth signal, average of three measurements, read-out: MIC. The class given is cell-based, Mycobacterium tuberculosis. (The colour change of resazurin is a common sign of viable cells or microbes.)

The target of data set [2] is Pks13-TE (Mycobacterium tuberculosis, UniProt I6X8D2). The data set is described as follows: biochemical. The class given is binding. The settings on record: Pks13-TE 30 µM, 3% DMSO, average of three measurements.
Pks13-TE, sequence (I6X8D2 1451-1733): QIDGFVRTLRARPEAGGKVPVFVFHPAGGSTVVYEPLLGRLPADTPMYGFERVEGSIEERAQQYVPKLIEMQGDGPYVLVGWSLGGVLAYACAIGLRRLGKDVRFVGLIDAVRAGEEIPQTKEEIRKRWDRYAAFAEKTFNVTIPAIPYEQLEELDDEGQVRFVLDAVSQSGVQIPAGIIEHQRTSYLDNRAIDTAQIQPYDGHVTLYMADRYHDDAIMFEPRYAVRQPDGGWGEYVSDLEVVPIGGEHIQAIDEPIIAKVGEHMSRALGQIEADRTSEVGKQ
The conditions of data set [3]: human, microsomes, 1 h, 0.1 µM, pH 7.4.
Data set [4] in a line: in vitro. The settings on record: human, microsomes, pH 7.4.
The nature of data set [5]: liver microsome stability assay. The conditions noted are these: human, liver microsomes, pH 7.4.

The structures appear in SMILES notation. In brackets after ≈: the same amount, converted by molar mass.

On to `CC(=O)c1c(C)n(-c2ccc(N3CCCCC3)cc2)c2ccc(O)c(CN3CCCCC3)c12` [Compound 48, 1-(5-hydroxy-2-methyl-1-(4-(piperidin-1-yl)phenyl)-4-(piperidin-1-ylmethyl)-1H-indol-3-yl) ethan-1-one], for which the MIC (usually the smallest concentration in the dilution series that meets the test's criterion for growth inhibition) in data set [1] was 0.125 µg/mL (≈ 0.281 µM). In addition, in data set [2] (compound 150 µM (1:5)), the thermal shift (ΔTm) (commonly the change in melting temperature against a reference sample) at 150 µM turned out to be 14.6 ± 0.04 °C. Further, the thermal shift (ΔTm) at 300 µM in data set [2] (compound 300 µM (1:10)) was 14 ± 0.01 °C. The “Remaining (T = 60 min)” value in data set [3] was 11.3%. In addition, in data set [4], the CLint scaled (in general, a measure of how fast metabolising enzymes remove a compound, apart from limits set by blood flow) at 0.1 µM was determined as 60.2 mL/min/kg and the microsomal CLint (in general, the rate of metabolic loss divided by the concentration) at 0.1 µM turned out to be 66.9 µL/min/mg. The half-life (in general, the time in which the quantity being followed falls by half) at 0.1 µM in data set [5] worked out at 20.7 min.
